These compounds were tested on Huh7 cells containing HCV replicons with an integrated luciferase reporter gene (assay: HCV Replicon Assay (luciferase reporter)). Conditions: Hepatitis C virus, Huh-7, 48 h, read-out: EC50 nM.
Assay type: cell-based
Protocol: Huh7 cells containing HCV replicons with an integrated luciferase reporter gene are maintained at 37° C. in 5% CO2 in Dulbecco's modified Eagle's medium (DMEM; Mediatech, Herndon, Va.) containing 10% heat-inactivated fetal bovine serum (FBS; Mediatech, Herndon, Va.), 2 mM L-glutamine (Cambrex Bioscience, Walkersville, Md.), 1% non essential amino acids (Lonza, Walkersville, Md.), 50 IU/mL penicillin (Mediatech, Herndon, Va.), […] streptomycin (Mediatech, Herndon, Va.) and 0.5 mg/mL G418 (Promega, Madison, Wis.). Cells are sub-divided 1:3 or 4 every 2-3 days.
24 h prior to the assay, Huh7 cells containing sub-genomic HCV replicons are collected, counted, and plated in Nunclon 96-well tissue culture plates (ThermoFisher, Rochester, N.Y.) at 5000 cells/well in […] standard maintenance medium (above) and incubated in the conditions above. To initiate the assay, culture medium is removed, and replaced with […] maintenance media lacking G418. Test compounds are serially diluted three-fold in dimethyl sulfoxide (DMSO) in two duplicate rows for each EC50 determination. These compound solutions are diluted ten-fold in DMEM lacking serum and G418. […] of these compound solutions in media are added to duplicate tissue culture plates. The final volume is 100 μL with a DMSO concentration of 1%. Compound concentrations are adjusted to appropriately define a dose response curve. Typical dilution series range from […] to 1.69 nM final concentrations to 1 nM to 16.9 fM final. Plates are incubated at 37° C. for approximately 48 hr.
Following incubation, media is removed from one of the two duplicate plates and replicon-reporter luciferase activity is measured using a Bright-Glo luciferase assay kit (Promega, Madison, Wis.) according to manufacturer's instructions. Semi-log plots of luciferase activity versus the logarithm of compound concentration are fit to a 4-parameter logistic function using XLfit software (IDBS Inc., Guildford, UK) to determine EC50.
`COC(=O)N[C@H](C(=O)N1CCC[C@H]1C(=O)Nc1ccc(NC(=O)c2ccc(NC(=O)[C@@H]3CCCN3C(=O)Cc3ccccc3)cc2)cc1)C(C)C` [Compound 103] gave an EC50 of 10 to 100 nM. With `COC(=O)N[C@H](C(=O)N1CCC[C@H]1C(=O)Nc1ccc(NC(=O)c2ccc(NC(=O)[C@@H]3CCCN3C(=O)[C@@H](NC(=O)OC)C(C)C)cc2)cc1)C(C)C` [Compound 102] the EC50 was 10 to 100 nM. With `COC(=O)N[C@H](C(=O)N1CCC[C@H]1c1ncc(-c2ccc(-c3ccc(-c4cnc([C@@H]5CCCN5C(=O)Cc5ccccc5)[nH]4)c4ccccc34)cc2)[nH]1)C(C)C` [Compound 307] the EC50 was under 10 nM. For `O=C(Cc1ccccc1)N1CCC[C@H]1c1ncc(-c2ccc(-c3ccc(-c4cnc([C@@H]5CCCN5C(=O)Cc5ccccc5)[nH]4)c4ccccc34)cc2)[nH]1` [Compound 302], the EC50 was under 10 nM. Work on `O=C(Nc1ccc(-c2ccc3nc(NC(=O)[C@@H]4CCCN4C(=O)Cc4ccccc4)ccc3c2)cn1)[C@@H]1CCCN1C(=O)Cc1ccccc1` [Compound 216] yielded an EC50 of under 10 nM.

Same assay, conditions: Hepatitis C virus, Huh-7; Huh7 HCV replicon cells, luciferase activity, approximately 48 hr incubation; read-out: EC50
`COC(=O)N[C@H](C(=O)N1CCC[C@H]1C(=O)Nc1ccc2cc(-c3ccc(NC(=O)[C@@H]4CCCN4C(=O)Cc4ccccc4)nc3)ccc2c1)C(C)C` [Compound 209] was tested, and the EC50 was under 10 nM. `COC(=O)N[C@H](C(=O)N1CCC[C@H]1c1ncc(-c2ccc(-c3ccc(-c4cnc([C@@H]5CCCN5C(=O)[C@@H](NC(=O)OC)C(C)C)[nH]4)c4c3OCCO4)cc2)[nH]1)C(C)C` [Compound 309] showed an EC50 of under 10 nM. For `COC(=O)N[C@@H](C(=O)N1CCC[C@H]1c1ncc(-c2ccc(-c3ccc(-c4cnc([C@@H]5CCCN5C(=O)[C@H](NC(=O)OC)C(C)C)[nH]4)c4ccccc34)cc2)[nH]1)C(C)C` [Compound 324], the EC50 was under 10 nM. For `COC(=O)N[C@H](C(=O)N1CCC[C@H]1C(=O)Nc1ccc2cc(-c3cnc(NC(=O)[C@@H]4CCCN4C(=O)[C@@H](NC(=O)OC)C(C)C)nc3)ccc2c1)C(C)C` [Compound 221], the EC50 was under 10 nM. For `COC(=O)N[C@H](C(=O)N1CCC[C@H]1c1nc(-c2ccc(-c3ccc(-c4c[nH]c([C@@H]5CCCN5C(=O)[C@@H](NC(=O)OC)C(C)C)n4)c4sccc34)cc2)c[nH]1)C(C)C` [Compound 311], the EC50 was under 10 nM. `COC(=O)N[C@H](C(=O)N1CCC[C@H]1c1nc(-c2ccc(-c3ccc(-c4c[nH]c([C@@H]5CCCN5C(=O)[C@@H](NC(=O)OC)C(C)C)n4)c4[nH]cc(C)c34)cc2)c[nH]1)C(C)C` [Compound 330] showed an EC50 of under 10 nM. Work on `O=C(Nc1ccc2cc(-c3ccc(NC(=O)[C@@H]4CCCN4C(=O)Cc4ccccc4)nc3)ccc2c1)[C@@H]1CCCN1C(=O)Cc1ccccc1` [Compound 206] yielded an EC50 of under 10 nM. `COC(=O)N[C@H](C(=O)N1CCC[C@H]1C(=O)Nc1ccc2cc(NC(=O)[C@@H]3CCCN3C(=O)Cc3ccccc3)ccc2c1)C(C)C` [Compound 205] gave an EC50 of over 100 nM. For `COC(=O)N[C@H](C(=O)N1CCC[C@H]1C(=O)Nc1ccc(-c2ccc3nc(NC(=O)[C@@H]4CCCN4C(=O)[C@@H](NC(=O)OC)C(C)C)ccc3c2)cn1)C(C)C` [Compound 217], the EC50 was under 10 nM. Compound `CC(C)[C@H](Nc1ncccn1)C(=O)N1CCC[C@H]1c1nc(-c2ccc3cc(-c4ccc5[nH]c([C@@H]6CCCN6C(=O)[C@@H](Nc6ncccn6)C(C)C)nc5c4)ccc3c2)c[nH]1` [Compound 420] has an EC50 of under 10 nM. `COC(=O)NCC(=O)N1CCC[C@H]1c1ncc(-c2ccc(-c3ccc(-c4cnc([C@@H]5CCCN5C(=O)CNC(=O)OC)[nH]4)c4ccccc34)cc2)[nH]1` [Compound 325] gave an EC50 of under 10 nM. Work on `COC(=O)N[C@H](C(=O)N1CCC[C@H]1c1nc(-c2ccc(-c3ccc(-c4c[nH]c([C@@H]5CCCN5C(=O)[C@@H](NC(=O)OC)C(C)C)n4)c4c3ccn4C)cc2)c[nH]1)C(C)C` [Compound 327] yielded an EC50 of under 10 nM. Work on `COC(=O)NC(C(=O)N1CCC[C@H]1c1nc(-c2ccc(-c3ccc(-c4c[nH]c([C@@H]5CCCN5C(=O)[C@@H](NC(=O)OC)C(C)C)n4)c4c3CCCC4)cc2)c[nH]1)C(C)C` (stereo partly shown) [Compound 304] yielded an EC50 of under 10 nM. Compound `COC(=O)N[C@H](C(=O)N1CCC[C@H]1c1nc(-c2ccc(-c3ccc(-c4c[nH]c([C@@H]5CCCN5C(=O)[C@@H](NC(=O)OC)C(C)C)n4)c4sc(C)nc34)cc2)c[nH]1)C(C)C` [Compound 310] has an EC50 of under 10 nM. Compound `COC(=O)N[C@H](C(=O)N1CCC[C@H]1c1nc(-c2ccc(-c3ccc(-c4c[nH]c([C@@H]5CCCN5C(=O)[C@@H](NC(=O)OC)C(C)C)n4)c4oc(C)nc34)cc2)c[nH]1)C(C)C` [Compound 323] has an EC50 of under 10 nM. Work on `COC(=O)N[C@H](C(=O)N1CCC[C@H]1C(=O)Nc1ccc(-c2ccc3cc(NC(=O)[C@@H]4CCCN4C(=O)[C@@H](NC(=O)OC)C(C)C)ccc3c2)cc1)C(C)C` [Compound 201] yielded an EC50 of under 10 nM. Compound `COC(=O)N[C@H](C(=O)N1CCOC[C@H]1c1nc(-c2ccc3cc(-c4ccc5[nH]c([C@@H]6COCCN6C(=O)[C@@H](NC(=O)OC)C(C)C)nc5c4)ccc3c2)c[nH]1)C(C)C` [Compound 419] has an EC50 of under 10 nM. Compound `COC(=O)N[C@H](C(=O)N1CCC[C@H]1C(=O)OCC(=O)c1ccc(-c2ccc(C(=O)COC(=O)[C@@H]3CCCN3C(=O)[C@@H](NC(=O)OC)C(C)C)c3c2CCCC3)cc1)C(C)C` [Compound 303] has an EC50 of 10 to 100 nM. Work on `COC(=O)N[C@H](C(=O)N1CCC[C@H]1c1ncc(-c2ccc(-c3ccc(-c4cnc([C@@H]5CCCN5C(=O)[C@@H](NC(=O)OC)C(C)C)[nH]4)c4ccccc34)cc2)[nH]1)C(C)C` [Compound 301] yielded an EC50 of under 10 nM. Compound `COC(=O)N[C@H](C(=O)N1CCC[C@H]1c1nc(-c2ccc(-c3ccc(-c4c[nH]c([C@@H]5CCCN5C(=O)[C@@H](NC(=O)OC)C(C)C)n4)c4cccnc34)cc2)c[nH]1)C(C)C` [Compound 314] has an EC50 of under 10 nM. In the case of `COC(=O)N[C@H](C(=O)N1CCC[C@H]1C(=O)Nc1ncc(-c2ccc3nc(NC(=O)[C@@H]4CCCN4C(=O)Cc4ccccc4)ccc3c2)cn1)C(C)C` [Compound 214], the EC50 is reported as 10 to 100 nM. `COC(=O)N[C@H](C(=O)N1CCC[C@H]1c1nc(-c2ccc(-c3ccc(-c4c[nH]c([C@@H]5CCCN5C(=O)Cc5ccccc5)n4)cc3)c3ccccc23)c[nH]1)C(C)C` [Compound 308] was tested, and the EC50 was under 10 nM. `COC(=O)N[C@H](C(=O)N1CCC[C@H]1C(=O)OCC(=O)c1ccc(-c2ccc(C(=O)COC(=O)[C@@H]3CCCN3C(=O)[C@@H](NC(=O)OC)C(C)C)c3c2CCC3)cc1)C(C)C` [Compound 305] gave an EC50 of over 100 nM. For `COC(=O)N[C@H](C(=O)N1CCC[C@H]1C(=O)Nc1ccc2cc(NC(=O)[C@@H]3CCCN3C(=O)[C@@H](NC(=O)OC)C(C)C)ccc2c1)C(C)C` [Compound 204], the EC50 was 10 to 100 nM. For `COC(=O)N[C@H](C(=O)N1CCC[C@H]1C(=O)Nc1ccc2cc(-c3ccc(NC(=O)[C@@H]4CCCN4C(=O)Cc4ccccc4)cc3)ccc2c1)C(C)C` [Compound 203], the EC50 was under 10 nM. Compound `COC(=O)N[C@H](C(=O)N1CCC[C@H]1c1nc(-c2ccc(-c3ccc(-c4c[nH]c([C@@H]5CCCN5C(=O)[C@@H](NC(=O)OC)C(C)C)n4)c4c3CCC4)cc2)c[nH]1)C(C)C` [Compound 306] has an EC50 of under 10 nM. For `COC(=O)N[C@H](C(=O)N1CCC[C@H]1c1nc(-c2ccc3cc(-c4ccc5[nH]c([C@@H]6CCCN6C(=O)[C@@H](NC(=O)OC)C(C)C)nc5c4)ccc3c2)c[nH]1)C(C)C` [Compound 402], the EC50 was under 10 nM. Work on `O=C(Nc1ccc(-c2ccc3cc(NC(=O)[C@@H]4CCCN4C(=O)Cc4ccccc4)ccc3c2)cc1)[C@@H]1CCCN1C(=O)Cc1ccccc1` [Compound 211] yielded an EC50 of under 10 nM. Compound `COC(=O)N[C@H](C(=O)N1CCC[C@@]1(C)c1nc(-c2ccc(-c3ccc(-c4c[nH]c([C@]5(C)CCCN5C(=O)[C@@H](NC(=O)OC)C(C)C)n4)c4scnc34)cc2)c[nH]1)C(C)C` [Compound 329] has an EC50 of under 10 nM. Compound `O=S(=O)(Cc1ccccc1)N1CCC[C@H]1c1ncc(-c2ccc(-c3ccc(-c4cnc([C@@H]5CCCN5S(=O)(=O)Cc5ccccc5)[nH]4)c4ccccc34)cc2)[nH]1` [Compound 326] has an EC50 of over 100 nM. `COC(=O)N[C@H](C(=O)N1CCC[C@H]1C(=O)Nc1ccc2cc(-c3cnc(NC(=O)[C@@H]4CCCN4C(=O)[C@@H](NC(=O)OC)C(C)C)nc3)ccc2n1)C(C)C` [Compound 212] showed an EC50 of under 10 nM. Compound `COC(=O)N[C@H](C(=O)N1CCC[C@H]1C(=O)Nc1ccc(-c2ccc3cc(NC(=O)[C@@H]4CCCN4C(=O)Cc4ccccc4)ccc3c2)cn1)C(C)C` [Compound 208] has an EC50 of under 10 nM. Work on `COC(=O)N[C@H](C(=O)N1CCC[C@H]1c1nc(-c2ccc(-c3ccc(-c4c[nH]c([C@@H]5CCCN5C(=O)[C@@H](NC(=O)OC)C(C)C)n4)c4ncccc34)cc2)c[nH]1)C(C)C` [Compound 315] yielded an EC50 of under 10 nM. `COC(=O)N[C@H](C(=O)N1CCCC[C@H]1c1nc(-c2ccc3cc(-c4ccc5[nH]c([C@@H]6CCCCN6C(=O)[C@@H](NC(=O)OC)C(C)C)nc5c4)ccc3c2)c[nH]1)C(C)C` [Compound 418] was tested, and the EC50 was under 10 nM. `COC(=O)N[C@H](C(=O)N1CCC[C@H]1c1nc(-c2ccc(-c3ccc(-c4c[nH]c([C@@H]5CCCN5C(=O)[C@@H](NC(=O)OC)C(C)C)n4)c4c3OCO4)cc2)c[nH]1)C(C)C` [Compound 312] was tested, and the EC50 was under 10 nM.

Reference: US20110152246A1, “NOVEL INHIBITORS OF HEPATITIS C VIRUS REPLICATION” (InterMune, Inc., priority 2009, published 2011)
